# What was measured:
# [1] = test system: delayed-type hypersensitivity; assay: picryl chloride-induced delayed-type hypersensitivity, ear swelling ratio; type: in vivo, mice; conditions: for swelling ratio (ear): versus Control group
# Experimental: 76 Male mice (C57BU6Ncrj) weighing 18 to 20 g were used. The abdominal portion of each mouse was shaved such that the shaved portion was about 1 cm^2. Thereafter, 20 µl of an ethanol solution of 7 % picryl chloride was applied to the shaved portions for sensitization.
# Eighteen out of the 76 mice were used as Control group. A physiological saline solution containing 10 % Nikkol (Nikkol: trade name, dissolving aid, supplied by Nikko Chemical Co., Ltd.) was administered intraperitoneally to the 18 mice for the consecutive 5 days after the sensitization, and ear thickness of each of these 18 mice was measured on the eighth day after the sensitization. Thereafter, 20 µl of an olive oil solution of 1 % picryl chloride was applied to the ear of each of the mice to cause delayed-type hypersensitivity.
# The above pharmaceutical solutions were administered intraperitoneally at the above-described doses for the five consecutive days after the sensitization, and ear thickness of each of these mice was measured on the eighth day after the sensitization. Thereafter, 20 µl of an olive oil solution of 1 % picryl chloride was applied to the ear of each of the mice to cause delayed-type hypersensitivity.
# 24 Hours after the delayed-type hypersensitivity was induced, the swelling of the ear of each of the mice of Control group and Example groups ①, ②and③ was measured with a dial thickness gauge. On the basis of the values of the ear thickness measured before the application of the olive oil solution of 1 % picryl chloride, the swelling ratio of each of Example groups ①, ② and ③ and Control group was determined.
# And, the swelling ratio of the mice was determined.
# At first, the abdominal portion of each of forty ICR male mice weighing 20 to 25 g was shaved such that the shaved portion was about 1 cm^2. Thereafter, 20 µl of an ethanol solution of 7 % picryl chloride was applied to the shaved portions for sensitization.
# [2] = test system: stomach (mucosal ulcer in the glandular portion); type: in vivo, rats
# Experimental: 15 male SD rats weighing 180 to 220 g were used. These rats were fasted for 24 hours, and separated to three groups each consisting of 5 rats.
# Then, one group was used as Control group. A physiological saline solution of 10 % Nikkol was administered intraperitoneally, and the rats were sacrificed with ether 16 hours after the administration. The stomach of each rat was removed, and after 10 ml of physiological saline was injected into the stomachs, the stomachs were fixed by immersing them in a 1 % formalin for 10 minutes. Each stomach was dissected along the greater curvatura, and the length (mm) of mucosal ulcer which occurred in the glandular portion was measured under an anatomical microscope (x 10). The average of the ulcer lengths of the five rats was taken as an ulcer index.
# One out of the remaining two groups was used as Example group @. The procedure for Control group was repeated except that a physiological saline solution of 10 % Nikkol containing VIE-MAN in place of the physiological saline solution of 10 % Nikkol was administered intraperitoneally in such a dose that the amount of VIE-MAN was 300 mg/kg, and the ulcer index was determined.
# The remaining one group was used as Comparative Example group ⓘ. The procedure for Example group 17 was repeated except that a physiological saline solution of 10 % Nikkol containing indomethacin, which was a nonsteroidal anti-inflammatory preparation (antipyretic analgesic antiphlogistic preparation), in place of the physiological saline solution of 10 % Nikkol was administered intraperitoneally in such a dose that the amount of the indomethacin was 20 mg/kg, and the ulcer index was determined.
# [3] = test system: antigen-adjuvant-induced inflammation; assay: antigen-adjuvant-induced inflammation, right hind paw swelling by volumetry; type: in vivo, rats; conditions: for inhibition activity against antigen-adjuvant-induced inflammations / average of the swelling ratios: 10 mg/kg intraperitoneally; for average of the swelling ratios: 0.5 hour after administration of antigen and adjuvant, versus Control group
# Experimental: (§1) At first, five groups each consisting of five SD male rats weighing 180 to 220 g (total 25 rats) were prepared, and each rat was measured for a size of the subplantar region of the right hind paw. As an antigen to cause an antigen-adjuvant-induced inflammation, 0.2 mg/rat of egg-white albumin was used. Further, as an immune aid (adjuvant), a mixture consisting of 4 mg/rat of aluminum hydroxide and 0.1 ml/rat of pertussis vaccine was prepared.
# One out of the five groups was used as Control group. A physiological saline solution of 10 % Nikkol (trade name, dissolving aid, supplied by Nikko Chemical Co., Ltd.) was administered intraperitoneally to each rat, and 0.5 hour after the administration of the physiological saline solution of 10 % Nikkol, the above antigen and adjuvant were administered intracutaneously into the subplantar region of the right hind paw. Then, 0.5, 1, 2, 4, 6, 12 and 24 hours after the administration of the antigen and adjuvant, the swelling on the subplantar region of the right hind paw of each rat was measured by volumetry. And, the average of swelling ratios of the group in every measurement was determined on the basis of the measurement values of the sizes of subplantar regions of the right hind paws of the rats obtained before the administration of the physiological saline solution of 10 % Nikkol.
# One of the remaining four groups was used as Example group @. A physiological saline solution of 10 % Nikkol containing VIE-MAN was administered intraperitoneally into each rat of this group in such a dose that the amount of VIE-MAN was 10 mg/kg, and 0.5 hours after the administration of the physiological saline solution of 10 % Nikkol containing VIE-MAN, the above antigen and adjuvant were administered intracutaneously into the subplantar region of the right hind paw. Thereafter, the swelling on the subplantar region of the right hind paw of each rat was measured in the same manner as that for Control group, and the average of swelling ratios of the group in every measurement was determined.
# (§2) The same procedure as that for Example group ⑧ was carried out except that a physiological saline solution of 10 % Nikkol containing hydrocortisone which was an anti-inflammatory preparation (immunosuppressive preparation) in place of the physiological saline solution of 10 % Nikkol containing VIE-MAN was administered intraperitoneally in such a dose that the amount of the hydrocortisone was 10 mg/kg.
# as §2, with “diphenhydramine” for “hydrocortisone”, “antihistamine” for “anti-inflammatory”, “preparation” for “preparation (immunosuppressive preparation)”
# as §2, with “containing indomethacin” for “containing hydrocortisone”, “was a nonsteroidal” for “was an”, “preparation (antipyretic analgesic antiphlogistic” for “preparation (immunosuppressive”, “the indomethacin” for “the hydrocortisone”
# as §1, with “first, four” for “first, five”, “five male” for “five”, “SD” for “SD male”, “(total 20” for “(total 25”, “an antigen- adjuvant-induced” for “an antigen-adjuvant-induced”, “was prepared.” for “was used.”
# One out of the four groups was used an Control group, and the procedure for Control group in Example 4 was repeated to determine the average of the swelling ratios as a group unit.
# [4] = Example 2, Fig. 2, ICR male mice, 100 mg/kg/day intraperitoneally
# [5] = Example 2, ICR mice, 100 mg/kg/day intraperitoneally
SMILES,"swelling ratio (ear) [1, 4]","side effects such as a reduction in body weight [1, 5]","side effect on the digestive system ([2]; rat, in vivo)","inhibition activity against antigen-adjuvant-induced inflammations ([3]; Example 5, Fig. 4, 10 mg/kg)","average of the swelling ratios ([3]; Example 5, Fig. 4)","delayed-type hypersensitivity prevented and cured ([1]; Example 1, Fig. 1, 10, 30 and 100 mg/kg/day intraperitoneally)","swelling ratio (ear) ([1]; Example 1, Fig. 1, C57BU6Ncrj mice, 10, 30 and 100 mg/kg/day intraperitoneally for 5 days after sensitization, 24 hours after induction)","preventive and therapeutical effect on delayed-type hypersensitivity (comparison) ([1]; Example 1, Fig. 1, VIE-MAN 10, 30, 100 mg/kg/day versus methotrexate 1 mg/kg/day, intraperitoneally)","side effects such as a reduction in body weight ([1]; Example 1, mice, 10, 30 and 100 mg/kg/day intraperitoneally for 5 days)","mucosal ulcer (ulcer index) ([2]; rat, in vivo, ip, 300 mg/kg)","inhibition activity against antigen-adjuvant-induced inflammations ([3]; Example 4, Fig. 3)","average of the swelling ratios ([3]; Example 4, Fig. 3)","ulcer index ([2]; Example 8, Fig. 7, 20 mg/kg intraperitoneally, fasted rats, 16 hours after administration)","inhibition activity against antigen-adjuvant-induced inflammation compared with VIE-MAN ([3]; Example 4, Fig. 3, both 10 mg/kg intraperitoneally)"
"Cc1c(C)c2c(c(C)c1OC1OC(CO)C(O)C(O)C1O)CCC(C)(CCCC(C)CCCC(C)CCCC(C)C)O2 (racemic) [VIE-GLU, dl-α-tocopheryl-,8-D-glucoside]",significantly lower than that of Control group,not observed,nearly similar results to that of the test on VIE-MAN,almost as superior as VIE-MAN,significantly lower than that of the swelling ratios of Control group,,,,,,,,,
"Cc1c(C)c2c(c(C)c1OC1OC(CO)C(O)C(O)C1O)CCC(C)(CCCC(C)CCCC(C)CCCC(C)C)O2 (racemic) [VIE-MAN, dl-a-tocopheryl-a-D-mannoside]",significantly lower than that of Control group,not observed,,,,dose-dependently prevented and cured,significantly lower than that of Control group,superior to methotrexate,not observed,no mucosal ulcer was observed,excellent inhibition activity,significantly lower than that of the swelling ratios of Control group,,
"COc1ccc2c(c1)c(CC(=O)O)c(C)n2C(=O)c1ccc(Cl)cc1 [indomethacin, reference compound]",,,,,,,,,,,significant inhibition activity at and after 2 hours,,about 30 mm,much lower than that of VIE-MAN
